Laboratory results as given in patent US12297194B2, “N2-phenylpyrimidine-2,4-diamine compounds, and preparation methods and methods of use thereof” (BRIDGE BIOTHERAPEUTICS, INC., priority 2021, dated 2025).

Experiments:
Format in all cases: cell-based, murine
[1] = biological target: Ba/F3 EGFR L858R/T790M/C797S mutants (Homo sapiens, UniProt P00533, T790M/C797S/L858R, cells depend on it); experiment: CellTiter-Glo cell viability, Ba/F3 EGFR L858R/T790M/C797S cells; settings: 72 hours, read-out: Ba/F3 EGFR mutant cell (IC50, nM) L/T/C
Ba/F3 EGFR L858R/T790M/C797S mutants, sequence (P00533 whole entry T790M/C797S/L858R): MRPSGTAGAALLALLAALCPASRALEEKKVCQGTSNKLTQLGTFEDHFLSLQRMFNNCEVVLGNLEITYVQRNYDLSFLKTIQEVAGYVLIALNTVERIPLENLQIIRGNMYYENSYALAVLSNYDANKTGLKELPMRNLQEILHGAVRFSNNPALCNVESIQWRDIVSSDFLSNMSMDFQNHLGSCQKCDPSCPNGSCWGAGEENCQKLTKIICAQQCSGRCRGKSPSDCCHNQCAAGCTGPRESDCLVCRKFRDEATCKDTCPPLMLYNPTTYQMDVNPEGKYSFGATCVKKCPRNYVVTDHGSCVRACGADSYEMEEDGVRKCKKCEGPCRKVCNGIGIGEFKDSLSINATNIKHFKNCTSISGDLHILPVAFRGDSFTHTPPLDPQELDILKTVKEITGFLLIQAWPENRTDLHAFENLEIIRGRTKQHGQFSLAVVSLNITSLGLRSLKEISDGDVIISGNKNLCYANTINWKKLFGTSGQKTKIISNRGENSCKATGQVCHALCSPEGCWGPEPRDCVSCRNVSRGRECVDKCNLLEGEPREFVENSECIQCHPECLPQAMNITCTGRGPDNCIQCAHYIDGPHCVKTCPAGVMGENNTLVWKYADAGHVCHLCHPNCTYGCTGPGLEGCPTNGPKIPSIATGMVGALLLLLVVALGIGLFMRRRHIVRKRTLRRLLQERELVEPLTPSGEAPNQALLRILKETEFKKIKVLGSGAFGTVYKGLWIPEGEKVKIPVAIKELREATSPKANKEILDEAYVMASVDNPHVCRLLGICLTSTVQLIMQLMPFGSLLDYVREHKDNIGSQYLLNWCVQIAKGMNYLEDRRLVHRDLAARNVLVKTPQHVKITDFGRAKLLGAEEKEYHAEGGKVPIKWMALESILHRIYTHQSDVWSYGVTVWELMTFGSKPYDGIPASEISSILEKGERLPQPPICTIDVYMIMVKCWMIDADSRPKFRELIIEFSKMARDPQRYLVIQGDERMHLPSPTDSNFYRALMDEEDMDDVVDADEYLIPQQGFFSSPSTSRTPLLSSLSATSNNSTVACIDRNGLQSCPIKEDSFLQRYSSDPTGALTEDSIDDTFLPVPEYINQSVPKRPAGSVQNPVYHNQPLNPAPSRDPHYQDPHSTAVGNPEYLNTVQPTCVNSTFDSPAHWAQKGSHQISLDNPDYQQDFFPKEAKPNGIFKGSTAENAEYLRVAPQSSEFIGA
Method: (§1) In order to evaluate an inhibitory ability on wild-type Ba/F3 EGFR and Ba/F3 EGFR mutations in Ba/F3 cell lines by the compounds of Formula 1, the experiment was carried out as described below.
(§2) The measurement of activities on Ba/F3 cells harboring wild-type EGFR and EGFR mutants by the compounds of the present invention were determined utilizing the CELLTITER-GLO™ system from Promega, as follows. The CELLTITER-GLO™ assay is a method for measuring the ATP present in cells to determine the cell viability. Ba/F3 EGFR wild-type and Ba/F3 EGFR L858R/C797S (L/C), Ba/F3 EGFR L858R/T790M/C797S (L/T/C), Ba/F3 EGFR Del19/T790M (D/T), Ba/F3 EGFR Del19/C797S (D/C), Ba/F3 EGFR Del19/T790M/C797S (D/T/C) mutant cell lines were maintained in RPMI1640, containing […], 1% penicillin-streptomycin, […] puromycin. Cells were grown in a humidified incubator at 37° C. with […].
(§3) The analysis of an EGFR inhibitory activity by the compounds was carried out in accordance with the analysis reaction recipe below.
(§4) 2500 cells/90 μL were seeded in 96 well cell culture plate, and after 24 hours, treated with the compounds represented by Formula 1 in concentrations of 0, 0.3, 0.9, 2.7, 8.2, 24.7, 74.1, 222.2, 666.7, 2000 (nM). After the reaction of 72 hours, the plate was incubated for 30 minutes at ambient temperature, and then, was further treated with 100 μL of the CELLTITER-GLO™ reagent and was shaken for 10 minutes at ambient temperature. Finally, measurement of the luminescence values were obtained using the SPECTRAMAX™ iD3 (Molecular Devices), and the IC50 values of the compound were analyzed using the GraphPad Prism program (version 9.0.2, GraphPad Software, Inc.).

[2] = biological target: Ba/F3 EGFR Del19/T790M/C797S mutants (Homo sapiens, UniProt P00533, T790M/C797S, cells depend on it, form not given); experiment: CellTiter-Glo cell viability, Ba/F3 EGFR Del19/T790M/C797S cells; settings: 72 hours, read-out: Ba/F3 EGFR mutant cell (IC50, nM) D/T/C
Ba/F3 EGFR Del19/T790M/C797S mutants, sequence (P00533 with tags, fused parts or gaps DEL746-750/T790M/C797S, form open): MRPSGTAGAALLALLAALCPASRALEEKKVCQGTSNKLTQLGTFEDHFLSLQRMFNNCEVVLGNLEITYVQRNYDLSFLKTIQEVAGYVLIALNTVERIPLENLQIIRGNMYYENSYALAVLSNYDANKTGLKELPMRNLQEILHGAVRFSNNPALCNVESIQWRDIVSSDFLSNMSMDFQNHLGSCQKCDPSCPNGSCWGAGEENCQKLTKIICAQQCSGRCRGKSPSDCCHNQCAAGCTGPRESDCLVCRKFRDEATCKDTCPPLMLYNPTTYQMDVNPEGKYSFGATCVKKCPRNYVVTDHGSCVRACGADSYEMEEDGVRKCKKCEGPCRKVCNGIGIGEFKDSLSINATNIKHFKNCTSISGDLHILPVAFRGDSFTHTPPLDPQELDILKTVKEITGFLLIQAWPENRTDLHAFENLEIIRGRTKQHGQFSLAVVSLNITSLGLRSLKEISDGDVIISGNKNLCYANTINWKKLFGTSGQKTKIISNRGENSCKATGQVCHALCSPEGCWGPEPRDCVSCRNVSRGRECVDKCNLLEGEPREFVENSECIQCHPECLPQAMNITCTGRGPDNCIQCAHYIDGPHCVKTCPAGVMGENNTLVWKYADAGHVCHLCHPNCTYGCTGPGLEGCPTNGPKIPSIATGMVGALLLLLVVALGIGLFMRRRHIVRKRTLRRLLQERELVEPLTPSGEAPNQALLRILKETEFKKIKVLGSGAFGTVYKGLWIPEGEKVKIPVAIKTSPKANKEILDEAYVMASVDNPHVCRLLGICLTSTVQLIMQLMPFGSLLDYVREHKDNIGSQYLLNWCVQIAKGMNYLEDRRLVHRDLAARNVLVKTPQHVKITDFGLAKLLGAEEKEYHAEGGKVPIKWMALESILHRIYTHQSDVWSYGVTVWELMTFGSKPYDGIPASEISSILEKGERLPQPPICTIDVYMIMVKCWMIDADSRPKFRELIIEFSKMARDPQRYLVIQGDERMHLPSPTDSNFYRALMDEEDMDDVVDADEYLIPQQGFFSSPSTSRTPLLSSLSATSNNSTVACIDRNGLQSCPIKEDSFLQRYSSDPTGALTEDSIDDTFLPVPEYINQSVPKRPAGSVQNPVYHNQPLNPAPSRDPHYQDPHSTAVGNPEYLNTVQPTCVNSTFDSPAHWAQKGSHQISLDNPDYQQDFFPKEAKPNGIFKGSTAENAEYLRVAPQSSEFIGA
Method: as §1, §2, §3, §4

Ba/F3 EGFR Wild-type = Ba/F3 EGFR Wild-type (Homo sapiens, UniProt P00533); experiment: CellTiter-Glo cell viability, Ba/F3 EGFR wild-type cells; settings: 72 hours, read-out: Ba/F3 EGFR mutant cell (IC50, nM) WT
Ba/F3 EGFR Wild-type, sequence (P00533 whole entry, change not shown): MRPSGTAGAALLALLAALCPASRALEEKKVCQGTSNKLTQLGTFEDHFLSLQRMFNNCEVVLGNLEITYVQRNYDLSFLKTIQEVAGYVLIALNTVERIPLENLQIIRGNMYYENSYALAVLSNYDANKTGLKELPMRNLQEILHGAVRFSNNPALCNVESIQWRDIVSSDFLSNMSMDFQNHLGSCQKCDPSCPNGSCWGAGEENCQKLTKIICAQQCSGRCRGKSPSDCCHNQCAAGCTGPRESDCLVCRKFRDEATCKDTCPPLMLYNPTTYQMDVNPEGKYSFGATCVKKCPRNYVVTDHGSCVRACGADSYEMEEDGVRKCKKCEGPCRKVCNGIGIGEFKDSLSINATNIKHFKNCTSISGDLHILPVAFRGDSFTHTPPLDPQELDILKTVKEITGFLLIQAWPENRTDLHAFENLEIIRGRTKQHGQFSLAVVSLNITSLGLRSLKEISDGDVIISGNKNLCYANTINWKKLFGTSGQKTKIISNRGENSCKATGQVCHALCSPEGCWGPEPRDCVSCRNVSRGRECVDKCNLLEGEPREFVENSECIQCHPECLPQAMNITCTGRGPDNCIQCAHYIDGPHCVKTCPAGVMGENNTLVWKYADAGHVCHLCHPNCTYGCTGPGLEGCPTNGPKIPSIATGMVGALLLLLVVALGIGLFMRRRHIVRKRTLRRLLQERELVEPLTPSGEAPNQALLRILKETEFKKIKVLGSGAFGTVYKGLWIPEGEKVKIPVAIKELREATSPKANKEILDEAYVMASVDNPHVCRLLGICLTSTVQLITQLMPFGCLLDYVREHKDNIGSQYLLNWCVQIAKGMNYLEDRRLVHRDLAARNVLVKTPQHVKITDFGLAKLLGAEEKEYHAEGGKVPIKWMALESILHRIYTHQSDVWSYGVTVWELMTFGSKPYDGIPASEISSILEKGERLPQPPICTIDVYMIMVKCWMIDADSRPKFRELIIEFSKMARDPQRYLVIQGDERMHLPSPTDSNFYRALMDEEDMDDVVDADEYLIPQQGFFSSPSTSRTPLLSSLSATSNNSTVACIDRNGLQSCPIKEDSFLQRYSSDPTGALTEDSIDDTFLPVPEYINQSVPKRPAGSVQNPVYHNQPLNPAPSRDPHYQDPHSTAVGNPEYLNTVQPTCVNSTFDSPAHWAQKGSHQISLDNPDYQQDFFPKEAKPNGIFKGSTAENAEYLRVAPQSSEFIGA
Method: as §1, §2, §3, §4

[3] = biological target: Ba/F3 EGFR Del19/C797S mutants (Homo sapiens, UniProt P00533, C797S, cells depend on it, form not given); experiment: CellTiter-Glo cell viability, Ba/F3 EGFR Del19/C797S cells; settings: 72 hours, read-out: Ba/F3 EGFR mutant cell (IC50, nM) D/C
Method: as §1, §2, §3, §4

[4] = biological target: Ba/F3 EGFR Del19/T790M mutants (Homo sapiens, UniProt P00533, T790M, cells depend on it, form not given); experiment: CellTiter-Glo cell viability, Ba/F3 EGFR Del19/T790M cells; settings: 72 hours, read-out: Ba/F3 EGFR mutant cell (IC50, nM) D/T
Method: as §1, §2, §3, §4

[5] = biological target: Ba/F3 EGFR L858R/C797S mutants (Homo sapiens, UniProt P00533, C797S/L858R, cells depend on it); experiment: CellTiter-Glo cell viability, Ba/F3 EGFR L858R/C797S cells; settings: 72 hours, read-out: Ba/F3 EGFR mutant cell (IC50, nM) L/C
Ba/F3 EGFR L858R/C797S mutants, sequence (P00533 whole entry C797S/L858R): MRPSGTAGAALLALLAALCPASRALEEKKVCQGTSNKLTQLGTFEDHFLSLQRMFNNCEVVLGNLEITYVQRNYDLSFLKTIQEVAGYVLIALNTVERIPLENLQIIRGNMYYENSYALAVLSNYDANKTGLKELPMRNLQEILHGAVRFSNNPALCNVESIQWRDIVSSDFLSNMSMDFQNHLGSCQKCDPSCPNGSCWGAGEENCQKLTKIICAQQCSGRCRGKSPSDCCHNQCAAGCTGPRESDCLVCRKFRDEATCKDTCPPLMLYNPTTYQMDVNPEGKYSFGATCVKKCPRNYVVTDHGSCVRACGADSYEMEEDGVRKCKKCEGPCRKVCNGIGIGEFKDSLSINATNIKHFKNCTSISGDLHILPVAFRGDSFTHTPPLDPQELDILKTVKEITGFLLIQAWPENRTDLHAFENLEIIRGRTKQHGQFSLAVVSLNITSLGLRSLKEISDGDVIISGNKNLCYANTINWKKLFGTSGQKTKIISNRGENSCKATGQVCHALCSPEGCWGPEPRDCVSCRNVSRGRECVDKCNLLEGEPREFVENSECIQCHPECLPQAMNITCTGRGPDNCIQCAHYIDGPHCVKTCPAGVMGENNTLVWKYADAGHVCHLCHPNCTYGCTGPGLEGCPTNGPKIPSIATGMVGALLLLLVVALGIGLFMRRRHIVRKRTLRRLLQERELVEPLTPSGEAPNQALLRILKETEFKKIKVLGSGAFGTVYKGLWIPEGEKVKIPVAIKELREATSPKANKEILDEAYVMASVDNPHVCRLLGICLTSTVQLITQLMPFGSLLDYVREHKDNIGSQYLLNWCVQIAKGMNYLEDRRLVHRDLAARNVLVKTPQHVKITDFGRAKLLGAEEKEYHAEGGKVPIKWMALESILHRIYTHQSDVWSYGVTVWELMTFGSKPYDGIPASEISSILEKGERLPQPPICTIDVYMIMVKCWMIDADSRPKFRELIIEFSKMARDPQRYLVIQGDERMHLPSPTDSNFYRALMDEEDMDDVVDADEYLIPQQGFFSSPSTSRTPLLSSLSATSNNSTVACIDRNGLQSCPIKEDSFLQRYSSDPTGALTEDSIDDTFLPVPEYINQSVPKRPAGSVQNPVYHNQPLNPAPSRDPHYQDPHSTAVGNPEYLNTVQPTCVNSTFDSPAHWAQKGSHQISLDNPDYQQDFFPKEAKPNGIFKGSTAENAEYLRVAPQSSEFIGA
Method: as §1, §2, §3, §4

Row | Structure (SMILES) | GI50 [1] | GI50 [2] | GI50 (Ba/F3 EGFR Wild-type) | GI50 [3] | GI50 [4] | GI50 [5]
1 | COc1cc(N2CCC(N3CCN(C)CC3)CC2)c(C)cc1Nc1ncc(Br)c(Nc2ccc3nccnc3c2NS(=O)(=O)C2CC2)n1 [Example A19, N-(6-((5-bromo-2-((2-methoxy-5-methyl-4-(4-(4-methylpiperazin-1-yl)piperidin-1-yl)phenyl)amino)pyrimidin-4-yl)amino)quinoxalin-5-yl)cyclopropanesulfonamide] | 43 nM | 24 nM | 395 nM | 66 nM | 6 nM | 80 nM
2 | COc1cc(N2CCC(N3CCN(C)CC3)CC2)c(C)cc1Nc1ncc(C)c(Nc2ccc3nccnc3c2NS(C)(=O)=O)n1 [Example A21, N-(6-((2-((2-methoxy-5-methyl-4-(4-(4-methylpiperazin-1-yl)piperidin-1-yl)phenyl)amino)-5-methylpyrimidin-4-yl)amino)quinoxalin-5-yl)methane sulfonamide] | 103 nM | 58 nM | 460 nM | 23 nM | 24 nM | 52 nM
3 | COc1cc(N2CCC(N3CCOCC3)CC2)c(C)cc1Nc1ncc(Br)c(Nc2ccc3nccnc3c2NS(C)(=O)=O)n1 [Example A23, N-(6-((5-bromo-2-((2-methoxy-5-methyl-4-(4-morpholinopiperidin-1-yl)phenyl)amino)pyrimidin-4-yl)amino)quinoxalin-5-yl)methanesulfonamide] | 49 nM | 16 nM | 416 nM | 51 nM | 41 nM | 114 nM
4 | CCS(=O)(=O)Nc1c(Nc2nc(Nc3cc(C)c(N4CCC(N5CCN(C)CC5)CC4)cc3OC)ncc2Br)ccc2nccnc12 [Example A24, N-(6-((5-bromo-2-((2-methoxy-5-methyl-4-(4-(4-methylpiperazin-1-yl)piperidin-1-yl)phenyl)amino)pyrimidin-4-yl)amino)quinoxalin-5-yl)ethanesulfonamide] | 13 nM | 74 nM | 397 nM | 49 nM | 10 nM | 114 nM
5 | CCS(=O)(=O)Nc1c(Nc2nc(Nc3cc(C)c(N4CCC(N5CCN(C)CC5)CC4)cc3OC)ncc2Cl)ccc2nccnc12 [Example A25, N-(6-((5-chloro-2-((2-methoxy-5-methyl-4-(4-(4-methylpiperazin-1-yl)piperidin-1-yl)phenyl)amino)pyrimidin-4-yl)amino)quinoxalin-5-yl)ethanesulfonamide] | 34 nM | 134 nM | 373 nM | 46 nM | 18 nM | 112 nM
6 | COc1cc(N2CCC(N3CCN(C)CC3)CC2)c(F)cc1Nc1ncc(Br)c(Nc2ccc3nccnc3c2NS(C)(=O)=O)n1 [Example A27, N-(6-((5-bromo-2-((5-fluoro-2-methoxy-4-(4-(4-methylpiperazin-1-yl)piperidin-1-yl)phenyl)amino)pyrimidin-4-yl)amino)quinoxalin-5-yl)methanesulfonamide] | 65 nM | 192 nM | 183 nM | 101 nM | 27 nM | 184 nM
7 | CCc1cc(Nc2ncc(Br)c(Nc3ccc4nccnc4c3NS(C)(=O)=O)n2)c(OC)cc1N1CCC(N2CCOCC2)CC1 [Example A28, N-(6-((5-bromo-2-((5-ethyl-2-methoxy-4-(4-morpholinopiperidin-1-yl)phenyl)amino)pyrimidin-4-yl)amino)quinoxalin-5-yl)methanesulfonamide] | 17 nM | 51 nM | 318 nM | 36 nM | 10 nM | 101 nM
8 | CCc1cc(Nc2ncc(Cl)c(Nc3ccc4nccnc4c3NS(C)(=O)=O)n2)c(OC)cc1N1CCC(N2CCOCC2)CC1 [Example A29, N-(6-((5-chloro-2-((5-ethyl-2-methoxy-4-(4-morpholinopiperidin-1-yl)phenyl)amino)pyrimidin-4-yl)amino)quinoxalin-5-yl)methanesulfonamide] | 25 nM | 69 nM | 200 nM | 27 nM | 13 nM | 79 nM
9 | COc1cc(N2CCC(N3CCCC3)CC2)c(C)cc1Nc1ncc(Cl)c(Nc2ccc3nccnc3c2NS(C)(=O)=O)n1 [Example A30, N-(6-((5-chloro-2-((2-methoxy-5-methyl-4-(4-(pyrrolidin-1-yl)piperidin-1-yl)phenyl)amino)pyrimidin-4-yl)amino)quinoxalin-5-yl)methanesulfonamide] | 23 nM | 100 nM | 266 nM | 28 nM | 31 nM | 83 nM
10 | COc1cc(N2CCC(N3CCOCC3)CC2)c(C)cc1Nc1ncc(Cl)c(Nc2ccc3nccnc3c2NS(C)(=O)=O)n1 [Example A31, N-(6-((5-chloro-2-((2-methoxy-5-methyl-4-(4-morpholinopiperidin-1-yl)phenyl)amino)pyrimidin-4-yl)amino)quinoxalin-5-yl)methanesulfonamide] | 43 nM | 131 nM | 223 nM | 50 nM | 39 nM | 79 nM
11 | CCCc1cc(Nc2ncc(F)c(Nc3ccc4nccnc4c3NS(C)(=O)=O)n2)c(OC)cc1N1CCC(N2CCN(C)CC2)CC1 [Example A32, N-(6-((5-fluoro-2-((2-methoxy-4-(4-(4-methylpiperazin-1-yl)piperidin-1-yl)-5-propylphenyl)amino)pyrimidin-4-yl)amino)quinoxalin-5-yl)methanesulfonamide] | 229 nM | 91 nM | 603 nM | 11 nM | 27 nM | 51 nM
12 | CCc1cc(Nc2ncc(Br)c(Nc3ccc4nccnc4c3NS(C)(=O)=O)n2)c(OC)cc1N1CCC(N2CCCC2)CC1 [Example A33, N-(6-((5-bromo-2-((5-ethyl-2-methoxy-4-(4-(pyrrolidin-1-yl)piperidin-1-yl)phenyl)amino)pyrimidin-4-yl)amino)quinoxalin-5-yl)methanesulfonamide] | 18 nM | 6 nM | > 2000 nM | 4 nM | 8 nM | 57 nM
13 | CCc1cc(Nc2ncc(Cl)c(Nc3ccc4nccnc4c3NS(C)(=O)=O)n2)c(OC)cc1N1CCC(N2CCCC2)CC1 [Example A34, N-(6-((5-chloro-2-((5-ethyl-2-methoxy-4-(4-(pyrrolidin-1-yl)piperidin-1-yl)phenyl)amino)pyrimidin-4-yl)amino)quinoxalin-5-yl)methanesulfonamide] | 13 nM | 4 nM | > 2000 nM | 1 nM | 5 nM | 16 nM
14 | COc1cc(N2CC[C@H](N3CCN(C)CC3)[C@H](F)C2)ccc1Nc1ncc(Cl)c(Nc2ccc3nccnc3c2NS(C)(=O)=O)n1 [Example A35, N-(6-((5-chloro-2-((4-((3R,4S)-3-fluoro-4-(4-methylpiperazin-1-yl)piperidin-1-yl)-2-methoxyphenyl)amino)pyrimidin-4-yl)amino)quinoxalin-5-yl)methane sulfonamide] | 659 nM | 272 nM | 576 nM | 145 nM | 219 nM | 335 nM
15 | COc1cc(N2CCN([C@@H]3CCN(C)C[C@@H]3F)CC2)ccc1Nc1ncc(Cl)c(Nc2ccc3nccnc3c2NS(C)(=O)=O)n1 [Example A36, N-(6-((5-chloro-2-((4-(4-((3S,4R)-3-fluoro-1-methylpiperidin-4-yl)piperazin-1-yl)-2-methoxyphenyl)amino)pyrimidin-4-yl)amino)quinoxalin-5-yl)methane sulfonamide] | 485 nM | 241 nM | 657 nM | 111 nM | 73 nM | 267 nM
